Experimental data reported in ChEMBL document CHEMBL5512655, “Discovery of indolylacryloyl-derived oxacins as novel potential broad-spectrum antibacterial candidates” (Eur J Med Chem, 2024).
≈ marks a conversion by molar mass, not a printed value. Calls of active or inactive are those of the source. No cut-off for these calls is given here.

How the values were obtained:
Staphylococcus aureus [1] = test: Antibacterial activity against methicillin-resistant Staphylococcus aureus N315 assessed as inhibition of bacterial growth measured after 24 hrs incubation; assay type: functional
Staphylococcus aureus [2] = test: Antibacterial activity against Staphylococcus aureus assessed as inhibition of bacterial growth measured after 24 hrs incubation; assay type: functional
Staphylococcus aureus [3] = test: Antibacterial activity against Staphylococcus aureus ATCC 25923 assessed as inhibition of bacterial growth measured after 24 hrs incubation; assay type: functional
Staphylococcus aureus [4] = test: Antibacterial activity against Staphylococcus aureus ATCC 29213 assessed as inhibition of bacterial growth measured after 24 hrs incubation; assay type: functional
Enterococcus faecalis = test: Antibacterial activity against Enterococcus faecalis assessed as inhibition of bacterial growth measured after 24 hrs incubation; assay type: functional
Klebsiella pneumoniae = test: Antibacterial activity against Klebsiella pneumonia assessed as inhibition of bacterial growth measured after 24 hrs incubation; assay type: functional
Escherichia coli [5] = test: Antibacterial activity against Escherichia coli assessed as inhibition of bacterial growth measured after 24 hrs incubation; assay type: functional
Escherichia coli [6] = test: Antibacterial activity against Escherichia coli ATCC 25922 assessed as inhibition of bacterial growth measured after 24 hrs incubation; assay type: functional
Pseudomonas aeruginosa [7] = test: Antibacterial activity against Pseudomonas aeruginosa assessed as inhibition of bacterial growth measured after 24 hrs incubation; assay type: functional
Pseudomonas aeruginosa [8] = test: Antibacterial activity against Pseudomonas aeruginosa ATCC 27853 assessed as inhibition of bacterial growth measured after 24 hrs incubation; assay type: functional
Acinetobacter baumannii = test: Antibacterial activity against Acinetobacter baumannii assessed as inhibition of bacterial growth measured after 24 hrs incubation; assay type: functional
[9] = Hemolytic activity in human red blood cells assessed as hemolysis rate at 64 ug/ml relative to control; assay type: toxicity, cell-based, Erythrocyte; settings: red blood cells (erythrocytes), at 64 µg/mL, read-out: Activity
[10] = Hemolytic activity in human red blood cells assessed as hemolysis rate at 512 ug/ml relative to control; assay type: toxicity, cell-based, Erythrocyte; settings: red blood cells (erythrocytes), at 512 µg/mL, read-out: Activity
Staphylococcus aureus [11] = test: Antibacterial activity against methicillin-resistant Staphylococcus aureus N315 assessed as resistance development measured after 18 generations; assay type: functional, organism-based
Escherichia coli [12] = test: Antibacterial activity against Escherichia coli assessed as resistance development measured after 18 generations; assay type: functional, organism-based
Staphylococcus aureus [13] = test: Antibacterial activity against methicillin-resistant Staphylococcus aureus N315 assessed as resistance development by measuring compound concentration required to inhibit measured after 18 generations; assay type: functional
Staphylococcus aureus [14] = test: Antibacterial activity against methicillin-resistant Staphylococcus aureus N315 assessed as resistance development measured after 10 generations; assay type: functional, organism-based
Escherichia coli [15] = test: Antibacterial activity against Escherichia coli assessed as resistance development measured after 11 generations; assay type: functional, organism-based
Escherichia coli [16] = test: Antibacterial activity against Escherichia coli assessed as resistance development by measuring compound concentration required to inhibit measured after 18 generations; assay type: functional
Staphylococcus aureus [17] = test: Antibacterial activity against methicillin-resistant Staphylococcus aureus N315 assessed as reduction in bacterial burden at 2 to 4 times of MIC measured within 5 hrs by time-dependent kinetics assay; assay type: functional, organism-based
Escherichia coli [18] = test: Antibacterial activity against Escherichia coli assessed as reduction in bacterial burden at 2 to 4 times of MIC measured within 5 hrs by time-dependent kinetics assay; assay type: functional, organism-based
Staphylococcus aureus [19] = test: Antibacterial activity against methicillin-resistant Staphylococcus aureus N315 assessed as reduction in bacterial burden at 2 to 4 times of MIC measured upto 7 hrs by time-dependent kinetics assay; assay type: functional, organism-based
Escherichia coli [20] = test: Antibacterial activity against Escherichia coli assessed as reduction in bacterial burden at 2 to 4 times of MIC measured upto 7 hrs by time-dependent kinetics assay; assay type: functional, organism-based
Staphylococcus aureus [21] = test: Anti-biofilm effect in methicillin-resistant Staphylococcus aureus N315 assessed as biofilm destruction by measuring eradication rate at MIC; assay type: functional
Escherichia coli [22] = test: Anti-biofilm effect in Escherichia coli assessed as biofilm destruction by measuring eradication rate at MIC; assay type: functional
Staphylococcus aureus [23] = test: Anti-biofilm effect in methicillin-resistant Staphylococcus aureus N315 assessed as biofilm destruction rate at 6 times of MIC; assay type: functional
Escherichia coli [24] = test: Anti-biofilm effect in Escherichia coli assessed as biofilm destruction rate at 6 times of MIC; assay type: functional
Staphylococcus aureus [25] = test: Anti-biofilm effect in methicillin-resistant Staphylococcus aureus N315 assessed as inhibition of biofilm formation by measuring reduction in exo-polysaccharide content at 6 times of MIC relative to control; assay type: functional
Escherichia coli [26] = test: Anti-biofilm effect in Escherichia coli assessed as inhibition of biofilm formation by measuring reduction in exo-polysaccharide content at 6 times of MIC relative to control; assay type: functional
Cell membrane [27] = test: Induction of cytoplasmic membrane integrity loss in methicillin-resistant Staphylococcus aureus N315 assessed as increase in fluorescence intensity at MIC by Propidium iodide method (reference value: 554); assay type: cell membranes
Cell membrane [28] = test: Induction of cell membrane damage in methicillin-resistant Staphylococcus aureus N315 assessed as increase in density of red fluorescence at 4 times of MIC by Calcein-AM/PI dual staining based fluorescence microscopy; assay type: cell membranes
Cell membrane [29] = test: Induction of cell membrane damage in Escherichia coli assessed as increase in density of red fluorescence at 4 times of MIC by Calcein-AM/PI dual staining based fluorescence microscopy; assay type: cell membranes
Escherichia coli [30] = test: Induction of ROS production in Escherichia coli assessed as fluorescence intensity by DCFH-DA (dichlorofluorescin diacetate) probe based assay; assay type: functional, organism-based
Escherichia coli [31] = test: Induction of ROS production in Escherichia coli assessed as fluorescence intensity at 2 times of MIC by DCFH-DA (dichlorofluorescin diacetate) probe based assay; assay type: functional
Staphylococcus aureus [32] = test: Induction of lipid peroxidation in methicillin-resistant Staphylococcus aureus N315 assessed as malondialdehyde (MDA) level production; assay type: functional, organism-based
Escherichia coli [33] = test: Induction of lipid peroxidation in Escherichia coli assessed as malondialdehyde (MDA) level production; assay type: functional, organism-based
Staphylococcus aureus [34] = test: Induction of lipid peroxidation in methicillin-resistant Staphylococcus aureus N315 assessed as malondialdehyde (MDA) level production at 4 time of MIC; assay type: functional, organism-based
Escherichia coli [35] = test: Induction of lipid peroxidation in Escherichia coli assessed as malondialdehyde (MDA) level production at 4 time of MIC; assay type: functional, organism-based
Staphylococcus aureus [36] = test: Reduction in metabolic activity in methicillin-resistant Staphylococcus aureus N315 by Alamar Blue assay; assay type: functional, organism-based
Escherichia coli [37] = test: Reduction in metabolic activity in Escherichia coli by Alamar Blue assay; assay type: functional, organism-based
Staphylococcus aureus [38] = test: Reduction in metabolic activity in methicillin-resistant Staphylococcus aureus N315 at 6 times of MIC by Alamar Blue assay relative to control; assay type: functional; parameters: scale not given: the % may be the effect or the level left
Escherichia coli [39] = test: Reduction in metabolic activity in Escherichia coli at 6 times of MIC by Alamar Blue assay relative to control; assay type: functional; parameters: scale not given: the % may be the effect or the level left
Calf thymus DNA [40] = test: Binding affinity to calf thymus DNA assessed as hypochromism by spectroscopic analysis; assay type: nucleic-acid assay; settings: Bos taurus
Calf thymus DNA [41] = test: Binding affinity to calf thymus DNA by acridine orange staining based competitive binding assay; assay type: nucleic-acid assay; settings: Bos taurus
Calf thymus DNA [42] = test: Binding affinity to calf thymus DNA assessed as DNA intercalation with drug by […] assay; assay type: nucleic-acid assay; settings: Bos taurus
Staphylococcus aureus [43] = test: Induction of ROS production in methicillin-resistant Staphylococcus aureus N315 assessed as fluorescence intensity at 2 times of MIC by DCFH-DA (dichlorofluorescin diacetate) probe based assay

CCn1cc(C(=O)O)c(=O)c2cc(F)c(N3CCN(C(=O)/C(C#N)=C/c4cn(CCO)c5ccccc45)CC3)cc21
MIC (Staphylococcus aureus [1]): 0.25 µg/mL (≈ 0.448 µM)
MIC (Staphylococcus aureus [2]): 0.25 µg/mL (≈ 0.448 µM)
MIC (Staphylococcus aureus [3]): 0.25 µg/mL (≈ 0.448 µM)
MIC (Staphylococcus aureus [4]): 0.25 µg/mL (≈ 0.448 µM)
MIC (Enterococcus faecalis): 0.25 µg/mL (≈ 0.448 µM)
MIC (Klebsiella pneumoniae): 0.25 µg/mL (≈ 0.448 µM)
MIC (Escherichia coli [5]): 0.25 µg/mL (≈ 0.448 µM)
MIC (Escherichia coli [6]): 0.5 µg/mL (≈ 0.897 µM)
MIC (Pseudomonas aeruginosa [7]): 1 µg/mL (≈ 1.79 µM)
MIC (Pseudomonas aeruginosa [8]): 0.5 µg/mL (≈ 0.897 µM)
MIC (Acinetobacter baumannii): 0.5 µg/mL (≈ 0.897 µM)
hemolysis at 64 ug/ml [9]: < 1.8%
hemolysis at 512 ug/ml [10]: < 1.8%
Activity (Staphylococcus aureus [11]): Active
Activity (Escherichia coli [12]): Active
MIC (Staphylococcus aureus [13]): 64 µg/mL (≈ 115 µM)
Activity (Staphylococcus aureus [14]): inactive
Activity (Escherichia coli [15]): inactive
MIC (Escherichia coli [16]): 32 µg/mL (≈ 57.4 µM)
Activity (Staphylococcus aureus [17]): Active
Activity (Escherichia coli [18]): Active
Activity (Staphylococcus aureus [19]): Active
Activity (Escherichia coli [20]): Active
inhibition (INH) (Staphylococcus aureus [21]): 22.1%
inhibition (INH) (Escherichia coli [22]): 40.3%
inhibition (INH) (Staphylococcus aureus [23]): >60%
inhibition (INH) (Escherichia coli [24]): >60%
inhibition (INH) (Staphylococcus aureus [25]): <50%
inhibition (INH) (Escherichia coli [26]): <50%
Flu intensity (Cell membrane [27]): 1250
Activity (Cell membrane [28]): Active
Activity (Cell membrane [29]): Active
Activity (Escherichia coli [30]): Dose-Dependent Effect
Activity (Escherichia coli [31]): >50%
Activity (Staphylococcus aureus [32]): Dose-Dependent Effect
Activity (Escherichia coli [33]): Dose-Dependent Effect
Activity (Staphylococcus aureus [34]): Active
Activity (Escherichia coli [35]): Active
Activity (Staphylococcus aureus [36]): Dose-Dependent Effect
Activity (Escherichia coli [37]): Dose-Dependent Effect
Activity (Staphylococcus aureus [38]): >50%
Activity (Escherichia coli [39]): >50%
Activity (Calf thymus DNA [40]): Active
Activity (Calf thymus DNA [41]): Active
Activity (Calf thymus DNA [42]): Active
Activity (Staphylococcus aureus [43]): >50%
